A short description of assay [1]: microbe, parasite or virus in culture. It is filed as functional. Particulars: Mycobacterium tuberculosis.
For assay [2], the target named is T1, Heat shock factor protein 1 (Mus musculus, UniProt P38532).
T1 sequence (P38532 whole entry): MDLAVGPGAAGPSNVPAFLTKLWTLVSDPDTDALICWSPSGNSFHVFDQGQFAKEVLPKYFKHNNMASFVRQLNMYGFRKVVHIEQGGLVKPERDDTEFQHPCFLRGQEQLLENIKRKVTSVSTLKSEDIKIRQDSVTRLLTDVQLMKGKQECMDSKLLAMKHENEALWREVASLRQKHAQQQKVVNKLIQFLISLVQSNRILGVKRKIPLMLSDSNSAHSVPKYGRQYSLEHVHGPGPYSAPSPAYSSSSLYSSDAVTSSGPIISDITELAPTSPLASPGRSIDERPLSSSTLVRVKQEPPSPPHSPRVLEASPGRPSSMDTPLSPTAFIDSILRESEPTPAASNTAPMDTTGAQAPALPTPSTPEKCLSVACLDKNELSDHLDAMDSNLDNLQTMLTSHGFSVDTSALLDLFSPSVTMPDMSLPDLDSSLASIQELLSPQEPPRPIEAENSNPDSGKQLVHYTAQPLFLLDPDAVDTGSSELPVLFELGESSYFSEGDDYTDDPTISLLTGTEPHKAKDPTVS
Description: HSF1 potentiators in luciferase reporter cells, confirmation, cell-based, NIH3T3, luminescence, dose retest (AID 435004).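 Also: stress induced by proteasome inhibitor MG132 added 30 min after compound; luciferase reporter driven by HSF1 response element in NIH3T3 cells; actives raise luminescence as potentiators of the MG132 stress response.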 It is filed as functional. On the technique in general: A reporter such as luciferase makes a cellular process visible.

For assay [3], the target named is T2, Replicative DNA helicase DnaB (Mycobacterium tuberculosis, UniProt P9WMR3).
T2 sequence (P9WMR3 whole entry): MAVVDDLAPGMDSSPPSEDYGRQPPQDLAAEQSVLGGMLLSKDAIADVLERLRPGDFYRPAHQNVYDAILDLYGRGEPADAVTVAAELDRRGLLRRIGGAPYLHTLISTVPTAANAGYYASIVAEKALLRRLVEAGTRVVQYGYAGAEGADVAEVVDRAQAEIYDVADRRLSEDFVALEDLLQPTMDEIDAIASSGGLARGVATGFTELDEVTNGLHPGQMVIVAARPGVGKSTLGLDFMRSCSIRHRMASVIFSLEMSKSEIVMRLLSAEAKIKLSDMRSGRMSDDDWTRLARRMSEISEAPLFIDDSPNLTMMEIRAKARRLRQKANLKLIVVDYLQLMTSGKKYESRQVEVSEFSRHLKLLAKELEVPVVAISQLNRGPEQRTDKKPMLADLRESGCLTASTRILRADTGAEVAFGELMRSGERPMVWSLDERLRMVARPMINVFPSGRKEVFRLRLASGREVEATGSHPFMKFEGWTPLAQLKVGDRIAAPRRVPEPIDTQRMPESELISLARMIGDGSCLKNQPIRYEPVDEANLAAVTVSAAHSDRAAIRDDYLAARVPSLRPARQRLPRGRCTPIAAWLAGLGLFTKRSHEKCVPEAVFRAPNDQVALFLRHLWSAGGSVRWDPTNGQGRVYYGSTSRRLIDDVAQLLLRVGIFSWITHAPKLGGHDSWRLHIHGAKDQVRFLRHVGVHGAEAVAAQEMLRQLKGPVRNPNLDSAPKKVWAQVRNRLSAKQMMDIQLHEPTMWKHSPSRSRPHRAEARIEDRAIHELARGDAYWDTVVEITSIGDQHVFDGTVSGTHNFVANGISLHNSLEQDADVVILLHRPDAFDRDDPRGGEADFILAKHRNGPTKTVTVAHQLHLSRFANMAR
In words: DnaB intein splicing inhibitors, dose response, biochemical, cell-free fluorescence (AID 449749). It is filed as functional.

In a further assay the target is T3, Protein RecA (Mycobacterium tuberculosis, UniProt P9WHJ3).
T3 sequence (P9WHJ3 whole entry): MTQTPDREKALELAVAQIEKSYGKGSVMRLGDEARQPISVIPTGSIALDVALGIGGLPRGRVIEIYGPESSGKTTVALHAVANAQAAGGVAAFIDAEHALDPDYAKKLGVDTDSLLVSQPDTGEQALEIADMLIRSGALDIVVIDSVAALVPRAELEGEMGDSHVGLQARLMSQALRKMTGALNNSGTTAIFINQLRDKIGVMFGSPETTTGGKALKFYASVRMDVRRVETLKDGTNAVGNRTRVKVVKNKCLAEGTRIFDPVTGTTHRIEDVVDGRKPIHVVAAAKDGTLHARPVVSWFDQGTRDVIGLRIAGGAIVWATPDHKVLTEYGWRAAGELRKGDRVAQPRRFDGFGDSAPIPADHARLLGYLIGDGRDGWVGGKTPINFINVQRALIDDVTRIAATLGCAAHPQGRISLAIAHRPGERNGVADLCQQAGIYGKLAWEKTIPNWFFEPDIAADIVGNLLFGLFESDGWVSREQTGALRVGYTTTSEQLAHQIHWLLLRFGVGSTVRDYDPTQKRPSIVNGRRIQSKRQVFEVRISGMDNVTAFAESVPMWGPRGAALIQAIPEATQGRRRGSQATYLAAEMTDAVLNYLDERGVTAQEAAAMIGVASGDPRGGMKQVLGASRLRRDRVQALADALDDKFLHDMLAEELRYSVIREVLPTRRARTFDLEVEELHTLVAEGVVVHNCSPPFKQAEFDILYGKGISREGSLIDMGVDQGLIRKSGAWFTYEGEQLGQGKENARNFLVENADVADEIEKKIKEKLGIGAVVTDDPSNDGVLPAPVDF
Description: Fluorescence Cell-Free Homogeneous Dose Retest to Identify Inhibitors of RecA-Intein Splicing Activity. [Related pubchem assays (depositor defined):AID2097, AID2223, AID489010, AID492950]. It is filed as functional.

Another assay concerns INS1. Description: beta cell apoptosis inhibitors, cytokine rescue, dose response, luminescence, retest (AID 449756).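 Also: cell death triggered by IL-1 beta plus TNF-alpha plus IFN-gamma mixture; protective hits raise ATP signal compared with cytokine alone wells.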 The assay is classed as functional, cell-based. The note with it: Rattus norvegicus.
Assay [4] has as its system Streptococcus sp. 'group A'. In words: growth inhibition of control SK(-) GAS strain, dose response, counter-screen for streptokinase expression inhibitor project, luminescence, kanamycin, BacTiterGlo, confirmation (AID 1900). It is filed as functional, organism-based.
Another assay addresses T4, Streptokinase A (Streptococcus pyogenes serotype M1, UniProt P10520).
T4 sequence (P10520 whole entry): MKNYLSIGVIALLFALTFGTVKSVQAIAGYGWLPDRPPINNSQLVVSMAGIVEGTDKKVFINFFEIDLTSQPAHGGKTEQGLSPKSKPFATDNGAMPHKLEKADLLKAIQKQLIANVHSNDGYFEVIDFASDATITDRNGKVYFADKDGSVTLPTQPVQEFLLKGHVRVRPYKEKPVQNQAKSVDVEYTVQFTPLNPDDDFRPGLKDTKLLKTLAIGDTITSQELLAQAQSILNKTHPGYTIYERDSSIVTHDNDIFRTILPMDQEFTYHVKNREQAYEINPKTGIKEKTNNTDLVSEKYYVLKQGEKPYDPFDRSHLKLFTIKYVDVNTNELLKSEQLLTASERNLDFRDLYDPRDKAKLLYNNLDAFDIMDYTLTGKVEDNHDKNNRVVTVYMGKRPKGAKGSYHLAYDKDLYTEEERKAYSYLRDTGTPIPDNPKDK
Description: S. pyogenes streptokinase expression inhibitors, potency, dose response, plasminogen activation absorbance, OD405 (AID 1914).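 Also: secreted streptokinase activity via plasminogen activation per viability signal from cell pellet.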 It is filed as functional, Streptococcus pyogenes M1 GAS.

Another assay relates to Streptococcus. In words: Group A Streptococcus viability loss, dose response, counter-screen for streptokinase expression inhibitor project, luminescence, BacTiterGlo (AID 1915).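 Also: potency for reduction of bacterial viability or growth.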 The assay is classed as functional, organism-based. For orientation: Counterscreens check selectivity or assay interference.
The next assay concerns the target Cytochrome P450 2D6 (Homo sapiens, UniProt P10635).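 Also: CYP2D6 member of a cytochrome P450 panel assay.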
The target in another assay is T5, Cytochrome P450 1A2 (Homo sapiens, UniProt P05177).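 Also: PubChem cytochrome P450 panel assay, CYP1A2 panel member.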
T5 sequence (P05177 whole entry): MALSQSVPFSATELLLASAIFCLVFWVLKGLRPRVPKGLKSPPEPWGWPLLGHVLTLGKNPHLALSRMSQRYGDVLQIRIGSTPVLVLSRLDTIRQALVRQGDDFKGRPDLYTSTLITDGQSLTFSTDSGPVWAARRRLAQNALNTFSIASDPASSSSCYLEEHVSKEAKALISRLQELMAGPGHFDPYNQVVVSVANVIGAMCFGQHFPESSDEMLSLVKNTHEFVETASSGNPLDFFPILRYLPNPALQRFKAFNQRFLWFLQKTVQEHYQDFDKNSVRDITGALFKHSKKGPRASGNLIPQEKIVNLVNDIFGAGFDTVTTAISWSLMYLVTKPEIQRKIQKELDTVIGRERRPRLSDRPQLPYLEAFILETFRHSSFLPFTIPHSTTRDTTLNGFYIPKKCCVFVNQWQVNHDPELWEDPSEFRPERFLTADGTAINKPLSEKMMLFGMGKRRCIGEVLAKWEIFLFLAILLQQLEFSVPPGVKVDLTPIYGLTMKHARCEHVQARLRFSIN

Another assay concerns the target Cytochrome P450 3A4 (Homo sapiens, UniProt P08684).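 Also: CYP3A4 tested as one member of a cytochrome P450 panel screen.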
Assay [5] in a line: inhibitors of intracellular T. cruzi replication, confirmation, NIH3T3 host cells, beta-gal luminescence (AID 2044).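 Also: intracellular parasites grown in NIH/3T3 mouse fibroblasts as host cells; luminescent beta-galactosidase reporter signal from transgenic T. cruzi replicating inside host cells; inhibitors lower the luminescence signal.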 The assay is classed as functional, cell-based.
Assay [6] in a line: cytotoxicity toward NIH3T3 fibroblasts, dose response, counter-screen, cell-based, ATP luminescence, mouse fibroblasts (AID 2010).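 Also: cells exposed to compound for about 90 hours before reading.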 It is filed as functional.

The source made the active and inactive calls. Rule as the data show it, for most assays here: actives have a measured EC50 and inactives only a lower limit.

Chain of Cytochrome P450 2D6 (P10635 whole entry): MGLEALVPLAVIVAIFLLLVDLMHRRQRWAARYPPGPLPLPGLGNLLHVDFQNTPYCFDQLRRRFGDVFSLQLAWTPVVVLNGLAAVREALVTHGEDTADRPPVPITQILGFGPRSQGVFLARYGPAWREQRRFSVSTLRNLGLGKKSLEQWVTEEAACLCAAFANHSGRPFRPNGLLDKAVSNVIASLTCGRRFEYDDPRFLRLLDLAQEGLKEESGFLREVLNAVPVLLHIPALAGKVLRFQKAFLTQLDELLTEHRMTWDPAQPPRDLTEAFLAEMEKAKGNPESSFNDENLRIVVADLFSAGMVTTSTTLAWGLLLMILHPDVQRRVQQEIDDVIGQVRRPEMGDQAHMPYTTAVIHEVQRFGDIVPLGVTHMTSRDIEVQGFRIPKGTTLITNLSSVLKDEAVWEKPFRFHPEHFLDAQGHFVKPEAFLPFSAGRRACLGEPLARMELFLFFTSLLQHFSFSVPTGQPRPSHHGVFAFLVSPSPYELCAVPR
Chain of Cytochrome P450 3A4 (P08684 whole entry): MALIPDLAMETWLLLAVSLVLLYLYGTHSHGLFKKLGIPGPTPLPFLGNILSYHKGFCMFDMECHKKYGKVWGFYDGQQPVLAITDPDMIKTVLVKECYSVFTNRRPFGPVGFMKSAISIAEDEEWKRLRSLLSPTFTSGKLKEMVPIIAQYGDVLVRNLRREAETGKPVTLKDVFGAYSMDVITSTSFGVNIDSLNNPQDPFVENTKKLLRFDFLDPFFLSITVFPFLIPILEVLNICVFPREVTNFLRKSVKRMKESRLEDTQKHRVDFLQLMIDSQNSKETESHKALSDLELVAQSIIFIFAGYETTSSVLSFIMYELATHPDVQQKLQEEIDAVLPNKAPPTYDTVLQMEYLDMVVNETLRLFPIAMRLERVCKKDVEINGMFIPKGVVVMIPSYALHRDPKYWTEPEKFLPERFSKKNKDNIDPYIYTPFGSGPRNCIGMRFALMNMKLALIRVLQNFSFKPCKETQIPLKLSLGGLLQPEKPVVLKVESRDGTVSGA

The term EC50 denotes the concentration at which the effect is half-maximal. The AC50 is the midpoint of the concentration-response curve, whichever way the signal moves. On to `CCOC(=O)c1nnc(-c2ccccc2)nc1Sc1ccccc1Cl`, for which, in [1], the CC50 is > 40 µM (active). Further, the EC50 is 8.48 µM (active) in assay [2] and 0.686 µM (active) at Protein RecA. For the same compound, the concentration at half-maximal activity (AC50) in assay [3] is 2.36 µM (active).
In the case of `COc1ccc(-n2c(=S)[nH]c3cc(C(=O)Nc4ccccc4OC)ccc3c2=O)cc1`, the AC50 in the assay with INS1 is 6.62 µM (active).
As to `COCCn1nnnc1C(c1cc2cc(OC)ccc2nc1O)N1CCC(Cc2ccccc2)CC1` (centres undefined), the CC50 in assay [1] was > 40 µM (active).
On to `CCCCCCCCCCCCC(NC(C)=O)(C(=O)OCC)C(=O)OCC`, for which the EC50 in assay [4] was 6.45 µM (active); at Streptokinase A, > 150 µM (not active); in the assay with Streptococcus, 8.56 µM (active).
On to `O=[N+]([O-])c1cc(Cl)c(O)c(-[n+]2c(-c3ccccc3)cc(-c3ccccc3)cc2-c2ccccc2)c1.[O-][Cl+3]([O-])([O-])[O-]`, for which the CC50 in [1] was > 40 µM (active).
Still for that read-out and setting: to `O=C1N=C(Nc2ccccc2)S/C1=C\C=C\c1ccco1` belongs 39.3 µM (active).
On to `COc1ccc(OC)c(-c2[nH]nc3c2C(c2ccco2)C(C#N)=C(N)O3)c1` (centres undefined), for which the AC50 in assay [3] is 185 µM (active). The EC50 at Protein RecA was 3.22 µM (active).
As for `COc1cccc(CN2CCN(Cc3ccc(C#CC(C)(C)O)s3)CC2CCO)c1` (centres undefined), in assay [3], the AC50 was > 380 µM (inactive). Further, the EC50 at Protein RecA is > 380 µM (inactive).
`Cc1ccc(C2C(C#N)=C(N)Oc3[nH]nc(-c4ccccc4)c32)o1` (centres undefined): in [3], the AC50 is 4.75 µM (active). The EC50 on Protein RecA is 19.3 µM (active).
For `CC1(C)S[C@@H]2[C@H](NC(=O)COc3ccccc3)C(=O)N2C1C(=O)OCc1cc2ccccc2n1S(=O)(=O)c1ccccc1` (some centres undefined), the EC50 in [4] is 6.32 µM (active); on Streptokinase A, 23.6 µM (active); in the assay with Streptococcus, 39.9 µM (active).
On to `CC12CCC(C(=O)Nc3cccc(Cl)c3Cl)([C@H](Br)C1=O)C2(C)C` (some centres undefined), for which the EC50 (in assay [4]; on Streptokinase A; with Streptococcus) was > 150 µM (not active) in each case.
In the case of `CCCn1c(=O)[nH]c(=O)c2c1nc(-c1ccc(OC(F)F)c(OC)c1)n2CCOC`, in assay [3], the AC50 is > 380 µM (inactive). Moreover, the EC50 on Protein RecA is > 380 µM (inactive).
`Cc1oc(C(C)(C)C)cc1C(=O)N1CCN(C(c2ccccc2)c2ccccc2)CC1`: the values for the EC50 (in assay [4]; at Streptokinase A; with Streptococcus) were 2.64 µM (active), 17.6 µM (active) and 16.4 µM (active), respectively.
With `COc1ccccc1NC(=O)Nc1nc(CC(=O)Nc2cc(F)ccc2F)cs1`, the EC50 in assay [4] is 11.5 µM (active); at Streptokinase A, > 150 µM (not active); in the assay on Streptococcus, 30.9 µM (active).
For the compound `O=C(NNC(=S)NC(=O)c1ccco1)c1ccc(NC(=O)c2ccccc2)cc1`, the concentration giving a half-maximal response (EC50) was 0.973 µM (active) in assay [4], > 150 µM (not active) at Streptokinase A and 9.14 µM (active) in the assay with Streptococcus.
Take `COCC/N=C1/Sc2nc3ccc(C)cc3cc2CN1Cc1ccco1`: in assay [1], the CC50 was > 40 µM (active).
Consider `C/C(=N/Nc1nc(-c2ccccc2)cc(-c2ccc(F)cc2)n1)c1cccc(N)c1`, for which the AC50 in the assay with INS1 was 3.64 µM (active).
For the compound `CC1=NC2(O)c3ccccc3C(=O)C2(O)/C1=C(/O)OC(C)C` (centres undefined), the AC50 in assay [3] is 21.2 µM (active). Besides, the EC50 on Protein RecA is 14.7 µM (active).
Take `O=C(C/C=N\OCc1c(Cl)cccc1Cl)Oc1ccc(Cl)cc1Cl`: in assay [3], the AC50 was 21.8 µM (active). Besides, on Protein RecA, the EC50 was 7.56 µM (active).
With `C/C(CC(=O)Nc1ccccn1)=N\NC(=O)c1ccncc1`, in assay [3], the AC50 is 2.86 µM (active). The concentration for a half-maximal effect (EC50) at Protein RecA is 1.94 µM (active).
With `CCCCCCCCSc1nnc(CSc2nc3nc(C)cc(C)n3n2)o1`, the AC50 in the assay with INS1 is 14.9 µM (active); on Cytochrome P450 2D6, 28.2 µM (inconclusive); at Cytochrome P450 1A2, 31.6 µM (inconclusive); on Cytochrome P450 3A4 it was 35.5 µM (inconclusive).
Turning to `CCn1c2ccccc2c2cc(CN3CCN(Cc4cc(OC)ccc4O)CC3)ccc21`, the EC50 is 1.21 µM (active) in assay [5] and > 60 µM (not active) in assay [6]. Moreover, the CC50 in assay [1] is > 40 µM (active).

For the origin of these results see ChEMBL document CHEMBL1201862, “PubChem BioAssay data set” (2004).
